Patent US20100267561A1, “HERBICIDAL PYRIDAZINONE DERIVATIVES” (priority 2007, published 2010)

Key:
Type in all cases: in vivo
[1] = tested on: barnyardgrass (Echinochloa crus-galli); test: Test A pre-/postemergence plant response
Summary of the method: (§1)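 Ratings are visual, 0–100, where 100 means complete control and 0 no effect, taken roughly 10 days after treatment by comparison with untreated controls. Formulation: non-phytotoxic solvent mixture with surfactant.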

corn (Zea mays) = test: Test A pre-/postemergence plant response
Summary of the method: as §1

[2] = tested on: giant foxtail (Setaria faberi); test: Test A pre-/postemergence plant response
Summary of the method: as §1

[3] = tested on: large crabgrass (Digitaria sanguinalis); test: Test A pre-/postemergence plant response
Summary of the method: as §1

[4] = tested on: morningglory (Ipomoea coccinea); test: Test A pre-/postemergence plant response
Summary of the method: as §1

[5] = tested on: pigweed (Amaranthus retroflexus); test: Test A pre-/postemergence plant response
Summary of the method: as §1

[6] = tested on: velvetleaf (Abutilon theophrasti); test: Test A pre-/postemergence plant response
Summary of the method: as §1

[7] = tested on: wheat (Triticum aestivum); test: Test A pre-/postemergence plant response
Summary of the method: as §1

[8] = tested on: blackgrass (Alopecurus myosuroides); test: Test B pre-/postemergence plant response; conditions: for Blackgrass plant response rating: 8 g ai/ha
Source text: (§2) Seeds of plant species selected from blackgrass (Alopecurus myosuroides), downy bromegrass (Bromus tectorum), green foxtail (Setaria viridis), Italian ryegrass (Lolium multiflorum), wheat (Triticum aestivum), wild oat (Avena fatua), catchweed bedstraw (Galium aparine), bermudagrass (Cynodon dactylon), surinam grass (Brachiaria decumbens), cocklebur (Xanthium strumarium), corn (Zea mays), large crabgrass (Digitaria sanguinalis), woolly cupgrass (Eriochloa villosa), giant foxtail (Setaria faberii), goosegrass (Eleusine indica), johnsongrass (Sorghum halepense), kochia (Kochia scoparia), lambsquarters (Chenopodium album), morningglory (Ipomoea coccinea), eastern black (E.B.) nightshade (Solanum ptycanthum), yellow nutsedge (Cyperus esculentus), pigweed (Amaranthus retroflexus), common ragweed (Ambrosia elation), Russian thistle (Salsola iberica), soybean (Glycine max), common (oilseed) sunflower (Helianthus annuus), and velvetleaf (Abutilon theophrasti) were planted and treated preemergence with test chemicals formulated in a non-phytotoxic solvent mixture which included a surfactant.
(§3) At the same time, plants selected from these crop and weed species and also winter barley (Hordeum vulgare), canarygrass (Phalaris minor), chickweed (Stellaria media) and windgrass (Apera spica-venti) were treated with postemergence applications of some of the test chemicals formulated in the same manner. Plants ranged in height from 2 to 18 cm (1- to 4-leaf stage) for postemergence treatments.
(§4) Plant species in the flooded paddy test consisted of rice (Oryza sativa), umbrella sedge (Cyperus difformis), ducksalad (Heteranthera limosa) and barnyardgrass (Echinochloa crus-galli) grown to the 2-leaf stage for testing. At time of treatment, test pots were flooded to 3 cm above the soil surface, treated by application of test compounds directly to the paddy water, and then maintained at that water depth for the duration of the test. Treated plants and controls were maintained in a greenhouse for 13 to 15 days, after which time all species were compared to controls and visually evaluated. Plant response ratings, summarized in Table B, are based on a scale of 0 to 100 where 0 is no effect and 100 is complete control. A dash (-) response means no test result.

[9] = tested on: lambsquarters (Chenopodium album); test: Test B pre-/postemergence plant response
Source text: as §2, §3, §4

[10] = tested on: morningglory (Ipomoea coccinea); test: Test B pre-/postemergence plant response
Source text: as §2, §3, §4

[11] = Postemergence, 31 g ai/ha, 0 to 100 scale, 0 no effect, 100 complete control
[12] = Postemergence, 125 g ai/ha, 0 to 100 scale, 0 no effect, 100 complete control
[13] = Preemergence, 31 g ai/ha, 0 to 100 scale, 0 is no effect, 100 is complete control
[14] = Preemergence, 125 g ai/ha, 0 to 100 scale (0 no effect, 100 complete control)
[15] = Postemergence, 16 g ai/ha, scale 0 to 100
[16] = Postemergence, 31 g ai/ha, scale 0 to 100
[17] = Postemergence, 62 g ai/ha, scale 0 to 100, 0 no effect, 100 complete control
[18] = Preemergence, 16 g ai/ha, scale 0 to 100 (0 no effect, 100 complete control)
[19] = Preemergence, 31 g ai/ha, 0 to 100 scale, 0 no effect, 100 complete control
[20] = Preemergence, 62 g ai/ha, scale 0 to 100
[21] = 8 g ai/ha, postemergence, 0-100 scale
[22] = Preemergence, 8 g ai/ha, scale 0 to 100
[23] = Preemergence, 16 g ai/ha, scale 0 to 100
[24] = Preemergence, 31 g ai/ha, scale 0 to 100 (0 no effect, 100 complete control)

Cc1cc(-c2ccc(Cl)cc2)nn1-c1c(OC(=O)c2cccs2)cnn(C)c1=O [Compound 52]
Plant response rating, Barnyardgrass [1, 11]: 80
Plant response rating, Barnyardgrass [1, 12]: 100
Plant response rating, Barnyardgrass [1, 13]: 70
Plant response rating, Barnyardgrass [1, 14]: 100
Plant response rating, Corn (corn (Zea mays); [11]): 30
Plant response rating, Corn (corn (Zea mays); [12]): 100
Plant response rating, Corn (corn (Zea mays); [13]): 0
Plant response rating, Corn (corn (Zea mays); [14]): 70
Plant response rating, Foxtail, Giant [2, 11]: 80
Plant response rating, Foxtail, Giant [2, 12]: 90
Plant response rating, Foxtail, Giant [2, 13]: 100
Plant response rating, Foxtail, Giant [2, 14]: 100
Plant response rating, Crabgrass, Large [3, 11]: 60
Plant response rating, Crabgrass, Large [3, 12]: 90
Plant response rating, Crabgrass, Large [3, 13]: 30
Plant response rating, Crabgrass, Large [3, 14]: 100
Plant response rating, Morningglory [4, 11]: 0
Plant response rating, Morningglory [4, 12]: 0
Plant response rating, Morningglory [4, 13]: 0
Plant response rating, Morningglory [4, 14]: 20
Plant response rating, Pigweed [5, 11]: 0
Plant response rating, Pigweed [5, 12]: 0
Plant response rating, Pigweed [5, 13]: 0
Plant response rating, Pigweed [5, 14]: 0
Plant response rating, Velvetleaf [6, 11]: 0
Plant response rating, Velvetleaf [6, 12]: 20
Plant response rating, Velvetleaf [6, 14]: 0
Plant response rating, Wheat [7, 11]: 30
Plant response rating, Wheat [7, 12]: 60
Plant response rating, Wheat [7, 13]: 10
Plant response rating, Wheat [7, 14]: 80
Blackgrass plant response rating ([8]; postemergence, 0-100 scale): 50
Plant response rating, Blackgrass [8, 15]: 70
Plant response rating, Blackgrass [8, 16]: 95
Plant response rating, Blackgrass [8, 17]: 95
Plant response rating, Blackgrass [8, 18]: 95
Plant response rating, Blackgrass [8, 19]: 100
Plant response rating, Blackgrass [8, 20]: 100
Blackgrass plant response rating ([8]; Preemergence, scale 0 to 100): 0
Lambsquarters plant response rating [9, 21]: 0
Plant response rating, Lambsquarters [9, 15]: 0
Plant response rating, Lambsquarters [9, 16]: 0
Plant response rating, Lambsquarters [9, 17]: 0
Plant response rating, Lambsquarters [9, 19]: 0
Plant response rating, Lambsquarters [9, 20]: 0
Lambsquarters plant response rating [9, 22]: 0
Lambsquarters plant response rating [9, 23]: 0
Morningglory plant response rating [10, 21]: 0
Plant response rating, Morningglory [10, 15]: 0
Plant response rating, Morningglory [10, 16]: 0
Plant response rating, Morningglory [10, 17]: 0
Plant response rating, Morningglory [10, 24]: 90
Plant response rating, Morningglory [10, 20]: 100
Morningglory plant response rating [10, 22]: 0
Morningglory plant response rating [10, 23]: 0

Cc1cc(-c2ccc(Cl)cc2)nn1-c1c(OC(=O)Oc2ccccc2)cnn(C)c1=O [Compound 54]
Plant response rating, Barnyardgrass [1, 11]: 80
Plant response rating, Barnyardgrass [1, 12]: 100
Plant response rating, Barnyardgrass [1, 13]: 70
Plant response rating, Barnyardgrass [1, 14]: 100
Plant response rating, Corn (corn (Zea mays); [11]): 40
Plant response rating, Corn (corn (Zea mays); [12]): 90
Plant response rating, Corn (corn (Zea mays); [13]): 0
Plant response rating, Corn (corn (Zea mays); [14]): 60
Plant response rating, Foxtail, Giant [2, 11]: 90
Plant response rating, Foxtail, Giant [2, 12]: 100
Plant response rating, Foxtail, Giant [2, 13]: 90
Plant response rating, Foxtail, Giant [2, 14]: 100
Plant response rating, Crabgrass, Large [3, 11]: 70
Plant response rating, Crabgrass, Large [3, 12]: 90
Plant response rating, Crabgrass, Large [3, 13]: 60
Plant response rating, Crabgrass, Large [3, 14]: 100
Plant response rating, Morningglory [4, 11]: 0
Plant response rating, Morningglory [4, 12]: 0
Plant response rating, Morningglory [4, 13]: 0
Plant response rating, Morningglory [4, 14]: 20
Plant response rating, Pigweed [5, 11]: 0
Plant response rating, Pigweed [5, 12]: 0
Plant response rating, Pigweed [5, 13]: 0
Plant response rating, Pigweed [5, 14]: 0
Plant response rating, Velvetleaf [6, 11]: 0
Plant response rating, Velvetleaf [6, 12]: 0
Plant response rating, Velvetleaf [6, 13]: 0
Plant response rating, Velvetleaf [6, 14]: 0
Plant response rating, Wheat [7, 11]: 30
Plant response rating, Wheat [7, 12]: 60
Plant response rating, Wheat [7, 13]: 0
Plant response rating, Wheat [7, 14]: 60
Blackgrass plant response rating ([8]; postemergence, 0-100 scale): 45
Plant response rating, Blackgrass [8, 15]: 45
Plant response rating, Blackgrass [8, 16]: 70
Plant response rating, Blackgrass [8, 17]: 70
Plant response rating, Blackgrass [8, 18]: 90
Plant response rating, Blackgrass [8, 19]: 90
Plant response rating, Blackgrass [8, 20]: 90
Blackgrass plant response rating ([8]; Preemergence, scale 0 to 100): 60
Lambsquarters plant response rating [9, 21]: 0
Plant response rating, Lambsquarters [9, 15]: 0
Plant response rating, Lambsquarters [9, 16]: 0
Plant response rating, Lambsquarters [9, 17]: 0
Plant response rating, Lambsquarters [9, 19]: 0
Plant response rating, Lambsquarters [9, 20]: 0
Lambsquarters plant response rating [9, 22]: 0
Lambsquarters plant response rating [9, 23]: 0
Morningglory plant response rating [10, 21]: 0
Plant response rating, Morningglory [10, 15]: 0
Plant response rating, Morningglory [10, 16]: 0
Plant response rating, Morningglory [10, 17]: 0
Plant response rating, Morningglory [10, 24]: 0
Plant response rating, Morningglory [10, 20]: 0
Morningglory plant response rating [10, 22]: 0
Morningglory plant response rating [10, 23]: 0

Cc1ccc(-c2ccc(Cl)cc2)cc1-c1c(O)cnn(C)c1=O [Compound 46]
Plant response rating, Barnyardgrass [1, 11]: 0
Plant response rating, Barnyardgrass [1, 12]: 50
Plant response rating, Barnyardgrass [1, 13]: 40
Plant response rating, Barnyardgrass [1, 14]: 100
Plant response rating, Corn (corn (Zea mays); [11]): 20
Plant response rating, Corn (corn (Zea mays); [12]): 50
Plant response rating, Corn (corn (Zea mays); [13]): 0
Plant response rating, Corn (corn (Zea mays); [14]): 0
Plant response rating, Foxtail, Giant [2, 11]: 20
Plant response rating, Foxtail, Giant [2, 12]: 60
Plant response rating, Foxtail, Giant [2, 13]: 50
Plant response rating, Foxtail, Giant [2, 14]: 100
Plant response rating, Crabgrass, Large [3, 11]: 0
Plant response rating, Crabgrass, Large [3, 12]: 40
Plant response rating, Crabgrass, Large [3, 13]: 10
Plant response rating, Crabgrass, Large [3, 14]: 90
Plant response rating, Morningglory [4, 11]: 0
Plant response rating, Morningglory [4, 12]: 0
Plant response rating, Morningglory [4, 13]: 0
Plant response rating, Morningglory [4, 14]: 0
Plant response rating, Pigweed [5, 11]: 0
Plant response rating, Pigweed [5, 12]: 0
Plant response rating, Pigweed [5, 13]: 0
Plant response rating, Pigweed [5, 14]: 0
Plant response rating, Velvetleaf [6, 11]: 0
Plant response rating, Velvetleaf [6, 12]: 0
Plant response rating, Velvetleaf [6, 13]: 0
Plant response rating, Velvetleaf [6, 14]: 0
Plant response rating, Wheat [7, 11]: 0
Plant response rating, Wheat [7, 12]: 30
Plant response rating, Wheat [7, 13]: 0
Plant response rating, Wheat [7, 14]: 50
Plant response rating, Blackgrass [8, 18]: 30
Plant response rating, Blackgrass [8, 19]: 40
Plant response rating, Blackgrass [8, 20]: 85
Blackgrass plant response rating ([8]; Preemergence, scale 0 to 100): 0
Plant response rating, Lambsquarters [9, 18]: 0
Plant response rating, Lambsquarters [9, 19]: 0
Plant response rating, Lambsquarters [9, 20]: 0
Lambsquarters plant response rating [9, 22]: 0
Plant response rating, Morningglory [10, 18]: 0
Plant response rating, Morningglory [10, 24]: 0
Plant response rating, Morningglory [10, 20]: 0
Morningglory plant response rating [10, 22]: 0
